# From patent publication US8716307B2, “Combination antineoplastic therapy” (The Trustees Of The University of Pennsylvania, priority 2009, dated 2014)
# How the values were obtained:
# Format in all cases: cell-based
# [1] = system: LN229 cells expressing GFP-LC3; assay: Cell counting of LN229 GFP-LC3 cells (Coulter Z2 particle analyzer, confirmed by trypan blue exclusion); conditions: 5 nM rapamycin and/or 5 μM chloroquine, FIG. 1
# Experimental: Cell lines, transfection, and cell counting: LN229 cells were grown in DMEM supplemented with 10% heat-inactivated fetal bovine serum (Gemini Biosciences, Woodland, Calif.), 10 units/ml penicillin/streptomycin, and 2 mM L-glutamine (Invitrogen Corporation). LN229 cells were transfected with lipofectamine 2000 (Invitrogen) according to manufacturer protocol. Stable transfectants were selected with neomycin (Gibco), and high fluorescence clones of LN229 GFP-LC3 were selected by limiting dilution. For all in vitro experiments media+supplements and drugs treatments were changed daily. Cell number was assessed by using a Coulter Z2 particle analyzer and confirmed by trypan blue exclusion.
# [2] = system: LN229 GFP-LC3 cells; assay: Fluorescence microscopy of GFP-LC3 puncta (autophagosome accumulation); conditions: increasing doses; 48 hours of treatment; FIG. 2
# Experimental: Punctate flouresence indicates the accumulation of LC3-positive autophagosomes.
# Fluorescence Microscopy: Cells were grown in sterile glass coverslips and treated in full medium as indicated above. After 48 hours of treatment cells were fixed with 4% paraformaldehyde and imaged using a Nikon upright fluorescent microscope. Images were captured at 100× and representative images were reported.
# [3] = system: LN229 GFP-LC3 cells; assay: Electron microscopy of autophagic vesicles; conditions: FIG. 3
# Text: Cells were postfixed with 2% osmium tetroxide followed by an increasing gradient dehydration step using ethanol and propylene oxide.
Structure (SMILES),cell number [1],accumulation of LC3-positive autophagosomes (punctate fluorescence) [2],autophagosomes in electron micrographs [3]
CCN(CC)CCCC(C)Nc1ccnc2cc(Cl)ccc12 (centres unmarked) [chloroquine],decrease in cell number,accumulated LC3-positive autophagosomes,–
CO[C@H]1C[C@@H]2CC[C@@H](C)[C@@](O)(O2)C(=O)C(=O)N2CCCC[C@H]2C(=O)O[C@H]([C@H](C)C[C@@H]2CC[C@@H](O)[C@H](OC)C2)CC(=O)[C@H](C)/C=C(\C)[C@@H](O)[C@@H](OC)C(=O)[C@H](C)C[C@H](C)/C=C/C=C/C=C/1C [rapamycin],decrease in cell number,accumulated LC3-positive autophagosomes,autophagosomes are observed
